In general, solubility refers to how much of the substance goes into solution per volume. A high value points to a readily soluble substance. By MIC is commonly meant the smallest concentration in the dilution series that meets the test's criterion for growth inhibition.

Experimental findings from US20200323203A1, “SYNERGISTIC PESTICIDAL COMPOSITIONS AND METHODS FOR DELIVERY OF ACTIVE INGREDIENTS” (0903608 B.C. Ltd., priority 2017, published 2020) are described below.

The nature of series [1]: physchem. As to conditions: aqueous with cosolvent or surfactant or cyclodextrin, kinetic from dmso stock.
Series [2] relates to Fusarium oxysporum. The series is described as follows: Synergistic Growth Inhibition Assay (MIC / FIC index), Fusarium oxysporum. It is filed as cell-based. The following applies: individual compound alone. As to the method:
(§1) In some embodiments, the synergistic action between the pesticidal active ingredient, and the at least one C6-C10 (or alternatively C11 or C12) saturated or unsaturated aliphatic acid components of the pesticidal compositions according to embodiments of the present disclosure was tested using a Synergistic Growth Inhibition Assay, which is derived from and related to a checkerboard assay as is known in the art for testing of combinations of antimicrobial agents. In the Synergistic Growth Inhibition Assay used in accordance with some embodiments of the present disclosure, multiple dilutions of combinations of pesticidal active ingredient and at least one C6-C10 saturated or unsaturated aliphatic acid agents are tested in individual cells for inhibitory activity against a target pest or pathogenic organism. In one such embodiment, the combinations of pesticidal active ingredient and C6-C10 (or alternatively C11 or C12) saturated or unsaturated aliphatic acid agents may preferably be tested in decreasing concentrations. In a further such embodiment, the combinations of pesticidal active ingredient and C6-C10 (or alternatively C11 or C12) saturated or unsaturated aliphatic acid agents may be tested in increasing concentrations. These multiple combinations of the pesticidal active ingredient and at least one C6-C10 (or alternatively C11 or C12) saturated or unsaturated aliphatic acid agents may be prepared in 96-well microtiter plates. In one such embodiment, the Synergistic Growth Inhibition Assay then comprises rows which each contain progressively decreasing concentrations of the pesticidal active ingredient and one or more C6-C10 (or alternatively C11 or C12) saturated or unsaturated aliphatic acid agents to test for the MIC of the agents in combination at which growth of the target pest or pathogen is inhibited. Thus, each well of the microtiter plate is a unique combination of the two agents, at which inhibitory efficacy of the combination against the target pest or pathogen can be determined.
In one embodiment according to the present disclosure, for each row of microtiter cells in the Synergistic Growth Inhibition Assay, the FIC index is calculated from the lowest concentration of the pesticidal active ingredient and one or more C6-C10 saturated or unsaturated aliphatic acid agents necessary to inhibit growth of a target pest or pathogen. The FIC of each component is derived by dividing the concentration of the agent present in that well of the microtiter plate by the minimal inhibitory concentration (MIC) needed of that agent alone to inhibit growth of the target pest or pathogen. The FIC index is then the sum of these values for both agents in that well of the microtiter plate. The FIC index is calculated for each row as follows:
FICindex=MICa/MICA+MICb/MICB
Fractional inhibitory concentration indices may then used as measure of synergy. […] When the FIC index is equal to 1, the combination is additive.
Then, serial dilutions of these initial compositions in successive wells in the row of the microtiter plate were used to assay the pesticidal composition under the same conditions to determine the concentration of the composition combining the two agents corresponding to the microtiter well in which growth inhibition of the target pest or organism ceases. […]

The test system of series [3] is Sclerotinia sclerotiorum. The series is described as follows: Synergistic Growth Inhibition Assay (MIC / FIC index), Sclerotinia sclerotiorum. It is filed as cell-based. As to the method: as §1, with “In one such embodiment, the Synergistic Growth Inhibition Assay then comprises rows which each contain progressively decreasing concentrations of the pesticidal active ingredient and one or more C6-C10 (or alternatively C11 or C12) saturated or unsaturated aliphatic acid agents to test for the MIC of the agents in combination at which growth of the target pest or pathogen is inhibited.” left out
(§2) In one embodiment according to the present disclosure, for each row of microtiter cells in the Synergistic Growth Inhibition Assay, the FIC index is calculated from the lowest concentration of the pesticidal active ingredient and one or more C6-C10 saturated or unsaturated aliphatic acid agents necessary to inhibit growth of a target pest or pathogen. […] The FIC index is calculated for each row as follows: […]

Series [4] deals with Botrytis cinerea. The series is described as follows: Synergistic Growth Inhibition Assay (MIC / FIC index), Botrytis cinerea. In kind it is cell-based. On the procedure:
as §1, with “In one such embodiment, the Synergistic Growth Inhibition Assay then comprises rows which each contain progressively decreasing concentrations of the pesticidal active ingredient and one or more C6-C10 (or alternatively C11 or C12) saturated or unsaturated aliphatic acid agents to test for the MIC of the agents in combination at which growth of the target pest or pathogen is inhibited.” left out
as §2

Series [5] can be described thus: Solubility / effective solubilized concentration in 10% DMSO/90% PDB by HPLC. As to conditions: aqueous with cosolvent or surfactant or cyclodextrin, kinetic from dmso stock.
[6] abbreviates: effective solubilized concentration of working stock solution, DMSO stock diluted 10-fold in PDB, verified by HPLC.
The mark [7] stands for this setting: solubility, in 10% DMSO/90% PDB, HPLC.
Setting [8] is: 10% DMSO/90% potato dextrose broth (PDB).

The structures appear in SMILES notation. Converted amounts (≈) assume the structure as drawn. “And” between values parts separate entries of the source, which are not always exact repeats. Equal values may be shown once.

As for `Fc1ccc([C@]2(Cn3cncn3)O[C@H]2c2ccccc2Cl)cc1` (racemic) [Epoxiconazole], in series [1], the solubility came to 30 µg/mL (≈ 91 µM).
Regarding `C/C=C/C=C/C(=O)[O-].[K+]` [(2E,4E)-2,4-hexadienoic acid, potassium salt], the “MIC (A) / MIC (B) of the compound used alone” value (from here on “MIC (A) / MIC (B)”) in series [2] (24 hour incubation) came out at 625 µg/mL.
Take `CO/C=C(/C(=O)OC)c1ccccc1Oc1cc(Oc2ccccc2C#N)ncn1` [Azoxystrobin]: the “MIC (A) / MIC (B)” value in series [3] (individual compound alone, incubation period of 7 days) is 150 µg/mL; in series [2] (incubation period of 48 hours) it was 75 µg/mL and 150 µg/mL; in series [4] (individual compound alone, incubation period of 48 hours), 37.5 µg/mL and 75 µg/mL.
In series [5] (setting [6]), `N#Cc1c(Cl)c(Cl)c(Cl)c(C#N)c1Cl` [Chlorothalonil] gave a solubility of 2 µg/mL (≈ 7.52 µM).
Turning to `CCCCCCCCCC(=O)O` [Decanoic acid, decanoic acid], in series [2] (24 hour incubation), the “MIC (A) / MIC (B)” value was found to be 250 µg/mL. The MIC in series [4] (Botrytis cinerea, 96 h, Compound B alone, incubation 4 days) came to 500 µg/mL.
`CCCCCCCCCC(=O)[O-].[K+]` [Decanoic acid, potassium salt, decanoic acid, potassium salt]: the “MIC (A) / MIC (B)” value in series [2] (24 hour incubation) worked out at 78.12 µg/mL.
Consider `CCCCCCCCCCCC(=O)O` [Dodecanoic acid, dodecanoic acid], for which the “MIC (B)” value in series [3] (Compound B alone, incubation 7 days) was 50 µg/mL; in series [4] (Compound B alone, incubation 48 hours), 50 µg/mL.
Turning to `N#Cc1c[nH]cc1-c1cccc2c1OC(F)(F)O2` [Fludioxonil, fludioxonil], the results for the solubility in series [5] (setting [6]) and in series [5] (setting [7]) were 21 µg/mL (≈ 84.6 µM) and 15.4 µg/mL (≈ 62 µM), respectively.
For the compound `CCCCCC(=O)O` [Hexanoic acid, hexanoic acid], in series [2] (incubation period of 48 hours), the “MIC (A) / MIC (B)” value stood at 156.2 µg/mL.
In series [5] (setting [6]), `COCC(=O)N(c1c(C)cccc1C)C(C)C(=O)OC` (centres unmarked) [Metalaxyl] gave a solubility of 316 µg/mL (≈ 1130 µM).
Take `CCCC1COC(Cn2cncn2)(c2ccc(Cl)cc2Cl)O1` (centres unmarked) [Propiconazole]: in series [5] (setting [8]), the concentration in solution (solubility) was 89 µg/mL (≈ 260 µM).
In the case of `COC(=O)N(OC)c1ccccc1COc1ccn(-c2ccc(Cl)cc2)n1` [Pyraclostrobin, pyraclostrobin], the values for the solubility in series [5] (setting [6]) and in series [5] (setting [7]) were 15 µg/mL (≈ 38.7 µM) and 15.4 µg/mL (≈ 39.7 µM), respectively.
For the compound `C/C=C(/C)C(=O)O[C@H]1C[C@@H](OC(C)=O)[C@@]2(C)CO[C@H]3[C@H]4O[C@@H]5C[C@@H](c6ccoc6)C(C)=C5[C@@]4(C)[C@H](CC(=O)OC)[C@]1(C)[C@@H]32` [Salannin], in series [3] (Sclerotinia sclerotiorum, […], Compound A alone, incubation 7 days), the minimum inhibitory concentration (MIC) was found to be 500 µg/mL.
`CC(C)(C)C(O)(CCc1ccc(Cl)cc1)Cn1cncn1` (centres unmarked) [Tebuconazole] yielded a solubility in series [5] (setting [8]) of 450 µg/mL (≈ 1460 µM).
